The kinase profiling compilation of Christmann-Franck et al. (2016)
Where “and” joins values, the source holds several entries; their conditions need not be identical. Identical values can stand only once.

Assays:
Test in all cases: radiometric filter-binding kinase assay, Kinase HotSpot
Settings in all cases: compound 0.5 µM; ATP 10 µM
MAPK1 (human) = MAPK1 (human) (UniProt P28482)
TXK (human) = TXK (human) (UniProt P42681)
PRKD3 (human) = PRKD3 (human) (UniProt O94806)
WNK2 (human) = WNK2 (human) (UniProt Q9Y3S1)
DAPK1 (human) = DAPK1 (human) (UniProt P53355)
TSSK1B (human) = TSSK1B (human) (UniProt Q9BXA7)
Chain of TSSK1B (human) (Q9BXA7 whole entry, looked up): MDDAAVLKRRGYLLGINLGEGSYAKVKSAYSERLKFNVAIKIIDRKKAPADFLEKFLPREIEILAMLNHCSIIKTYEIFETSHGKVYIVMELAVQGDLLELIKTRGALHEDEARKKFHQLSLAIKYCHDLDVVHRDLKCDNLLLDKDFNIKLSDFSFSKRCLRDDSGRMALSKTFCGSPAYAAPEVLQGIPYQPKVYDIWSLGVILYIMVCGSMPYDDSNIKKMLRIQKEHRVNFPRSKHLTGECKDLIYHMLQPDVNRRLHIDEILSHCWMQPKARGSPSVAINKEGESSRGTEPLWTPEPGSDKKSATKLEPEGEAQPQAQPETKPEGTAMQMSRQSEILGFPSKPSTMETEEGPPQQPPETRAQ

MAP4K4 (human) = MAP4K4 (human) (UniProt O95819)
CDK4 CCND1 (human) = CDK4 CCND1 (human) (UniProt P24385+P11802)
TGFBR2 (human) = TGFBR2 (human) (UniProt P37173)
PAK1 (human) = PAK1 (human) (UniProt Q13153)
NEK7 (human) = NEK7 (human) (UniProt Q8TDX7)
Chain of NEK7 (human) (Q8TDX7 whole entry, looked up): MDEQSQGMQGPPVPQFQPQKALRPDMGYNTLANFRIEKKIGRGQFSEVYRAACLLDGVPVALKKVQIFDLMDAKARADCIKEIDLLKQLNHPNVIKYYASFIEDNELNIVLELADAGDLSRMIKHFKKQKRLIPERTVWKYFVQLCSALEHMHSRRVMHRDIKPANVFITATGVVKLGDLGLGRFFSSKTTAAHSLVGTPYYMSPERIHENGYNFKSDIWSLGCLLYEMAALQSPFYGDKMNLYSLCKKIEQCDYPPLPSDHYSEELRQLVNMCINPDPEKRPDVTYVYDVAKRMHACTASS

NEK2 (human) = NEK2 (human) (UniProt P51955)
VRK1 (human) = VRK1 (human) (UniProt Q99986)
Chain of VRK1 (human) (Q99986 whole entry, looked up): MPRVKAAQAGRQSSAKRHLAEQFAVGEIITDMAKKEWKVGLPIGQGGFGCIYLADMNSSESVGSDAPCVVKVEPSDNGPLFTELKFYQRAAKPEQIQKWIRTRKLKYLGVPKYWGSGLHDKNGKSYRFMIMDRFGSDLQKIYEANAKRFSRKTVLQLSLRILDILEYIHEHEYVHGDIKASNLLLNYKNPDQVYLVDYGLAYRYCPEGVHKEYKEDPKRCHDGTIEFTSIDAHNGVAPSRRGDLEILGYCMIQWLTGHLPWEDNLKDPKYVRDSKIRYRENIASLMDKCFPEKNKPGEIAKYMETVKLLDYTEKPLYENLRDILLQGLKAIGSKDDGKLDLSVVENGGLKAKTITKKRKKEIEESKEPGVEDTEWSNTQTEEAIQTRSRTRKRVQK

SGK2 (human) = SGK2 (human) (UniProt Q9HBY8)
ALK (human) = ALK (human) (UniProt Q9UM73)
NEK4 (human) = NEK4 (human) (UniProt P51957)
IRAK1 (human) = IRAK1 (human) (UniProt P51617)
PIM3 (human) = PIM3 (human) (UniProt Q86V86)
MAPKAPK3 (human) = MAPKAPK3 (human) (UniProt Q16644)
CHEK1 (human) = CHEK1 (human) (UniProt O14757)
IKBKE (human) = IKBKE (human) (UniProt Q14164)
ADRBK1 (human) = ADRBK1 (human) (UniProt P25098)
PRKCB2 (human) = PRKCB2 (human) (UniProt P05771)
ZAP70 (human) = ZAP70 (human) (UniProt P43403)
Chain of ZAP70 (human) (P43403 whole entry, looked up): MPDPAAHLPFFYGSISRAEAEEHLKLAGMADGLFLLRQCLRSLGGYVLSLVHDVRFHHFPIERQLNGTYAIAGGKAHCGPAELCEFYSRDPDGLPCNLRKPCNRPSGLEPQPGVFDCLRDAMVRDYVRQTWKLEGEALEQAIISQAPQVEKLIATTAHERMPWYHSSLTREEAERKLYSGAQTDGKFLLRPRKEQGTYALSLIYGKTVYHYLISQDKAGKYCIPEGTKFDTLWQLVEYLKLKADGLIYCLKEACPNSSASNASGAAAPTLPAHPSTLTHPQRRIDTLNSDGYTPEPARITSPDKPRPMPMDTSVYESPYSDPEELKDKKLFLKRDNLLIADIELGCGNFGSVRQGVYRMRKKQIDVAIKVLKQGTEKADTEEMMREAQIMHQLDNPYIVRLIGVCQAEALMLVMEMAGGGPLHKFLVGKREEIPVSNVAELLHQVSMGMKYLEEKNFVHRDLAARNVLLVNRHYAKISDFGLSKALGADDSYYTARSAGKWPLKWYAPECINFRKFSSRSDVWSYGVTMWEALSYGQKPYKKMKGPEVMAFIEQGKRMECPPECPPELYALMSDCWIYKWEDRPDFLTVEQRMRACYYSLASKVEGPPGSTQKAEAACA

FYN (human) = FYN (human) (UniProt P06241)
NEK3 (human) = NEK3 (human) (UniProt P51956)
Chain of NEK3 (human) (P51956 whole entry, looked up): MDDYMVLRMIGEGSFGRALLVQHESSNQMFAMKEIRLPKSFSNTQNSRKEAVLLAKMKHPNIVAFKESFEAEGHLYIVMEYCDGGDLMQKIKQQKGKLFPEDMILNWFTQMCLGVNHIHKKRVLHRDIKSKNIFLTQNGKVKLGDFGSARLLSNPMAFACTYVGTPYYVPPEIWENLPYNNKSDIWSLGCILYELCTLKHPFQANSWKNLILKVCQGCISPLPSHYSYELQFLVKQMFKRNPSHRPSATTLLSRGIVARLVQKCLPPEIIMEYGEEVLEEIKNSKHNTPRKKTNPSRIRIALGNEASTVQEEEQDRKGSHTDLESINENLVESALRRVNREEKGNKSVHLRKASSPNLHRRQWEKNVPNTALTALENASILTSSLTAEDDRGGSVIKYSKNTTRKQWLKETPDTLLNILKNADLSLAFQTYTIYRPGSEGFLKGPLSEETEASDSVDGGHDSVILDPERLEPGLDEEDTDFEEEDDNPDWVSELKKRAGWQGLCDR

MARK4 (human) = MARK4 (human) (UniProt Q96L34)
GSK3B (human) = GSK3B (human) (UniProt P49841)
Chain of GSK3B (human) (P49841 whole entry, looked up): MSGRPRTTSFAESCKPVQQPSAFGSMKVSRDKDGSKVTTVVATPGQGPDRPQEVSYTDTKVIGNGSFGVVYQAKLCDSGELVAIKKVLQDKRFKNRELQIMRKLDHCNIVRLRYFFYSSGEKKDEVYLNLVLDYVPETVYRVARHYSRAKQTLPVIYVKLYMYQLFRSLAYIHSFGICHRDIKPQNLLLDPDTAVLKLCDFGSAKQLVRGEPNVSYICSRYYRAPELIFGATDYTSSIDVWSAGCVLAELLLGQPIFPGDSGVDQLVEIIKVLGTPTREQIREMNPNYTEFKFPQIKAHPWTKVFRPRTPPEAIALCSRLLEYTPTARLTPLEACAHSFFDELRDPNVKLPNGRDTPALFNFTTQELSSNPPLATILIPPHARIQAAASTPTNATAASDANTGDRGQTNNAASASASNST

MAP3K7 TAB1 (human) = MAP3K7 TAB1 (human) (UniProt O43318+Q15750)
BRSK2 (human) = BRSK2 (human) (UniProt Q8IWQ3)
MARK3 (human) = MARK3 (human) (UniProt P27448)
LYN (human) = LYN (human) (UniProt P07948)
Chain of LYN (human) (P07948 whole entry, looked up): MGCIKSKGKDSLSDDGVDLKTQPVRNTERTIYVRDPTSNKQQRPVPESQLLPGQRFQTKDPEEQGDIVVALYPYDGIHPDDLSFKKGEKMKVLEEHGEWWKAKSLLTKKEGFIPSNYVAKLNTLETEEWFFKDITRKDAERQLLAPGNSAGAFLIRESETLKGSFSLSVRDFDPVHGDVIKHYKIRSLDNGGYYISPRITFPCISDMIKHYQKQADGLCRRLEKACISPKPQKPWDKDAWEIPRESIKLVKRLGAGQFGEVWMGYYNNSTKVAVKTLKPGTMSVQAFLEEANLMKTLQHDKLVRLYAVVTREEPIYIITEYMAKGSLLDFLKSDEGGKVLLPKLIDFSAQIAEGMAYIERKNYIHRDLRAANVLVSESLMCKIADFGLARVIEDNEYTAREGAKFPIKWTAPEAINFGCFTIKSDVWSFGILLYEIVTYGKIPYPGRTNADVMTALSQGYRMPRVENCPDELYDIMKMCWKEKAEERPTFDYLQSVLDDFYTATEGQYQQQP

CLK4 (human) = CLK4 (human) (UniProt Q9HAZ1)
Chain of CLK4 (human) (Q9HAZ1 whole entry, looked up): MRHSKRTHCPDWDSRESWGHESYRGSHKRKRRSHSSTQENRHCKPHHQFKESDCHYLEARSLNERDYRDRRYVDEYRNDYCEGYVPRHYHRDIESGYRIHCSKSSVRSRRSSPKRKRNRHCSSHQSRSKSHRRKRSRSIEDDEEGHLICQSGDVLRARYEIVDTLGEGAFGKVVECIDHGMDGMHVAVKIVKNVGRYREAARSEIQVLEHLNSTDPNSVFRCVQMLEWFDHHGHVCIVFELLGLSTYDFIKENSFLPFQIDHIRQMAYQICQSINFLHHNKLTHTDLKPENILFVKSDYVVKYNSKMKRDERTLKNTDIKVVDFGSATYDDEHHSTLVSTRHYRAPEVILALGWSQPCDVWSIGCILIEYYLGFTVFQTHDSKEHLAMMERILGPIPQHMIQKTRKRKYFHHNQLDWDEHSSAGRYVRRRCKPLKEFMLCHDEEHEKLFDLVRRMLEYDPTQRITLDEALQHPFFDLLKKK

PDGFRA (human) = PDGFRA (human) (UniProt P16234)
IRAK4 (human) = IRAK4 (human) (UniProt Q9NWZ3)
CAMK2D (human) = CAMK2D (human) (UniProt Q13557)
NEK1 (human) = NEK1 (human) (UniProt Q96PY6)
SRC (human) = SRC (human) (UniProt P12931)
Chain of SRC (human) (P12931 whole entry, looked up): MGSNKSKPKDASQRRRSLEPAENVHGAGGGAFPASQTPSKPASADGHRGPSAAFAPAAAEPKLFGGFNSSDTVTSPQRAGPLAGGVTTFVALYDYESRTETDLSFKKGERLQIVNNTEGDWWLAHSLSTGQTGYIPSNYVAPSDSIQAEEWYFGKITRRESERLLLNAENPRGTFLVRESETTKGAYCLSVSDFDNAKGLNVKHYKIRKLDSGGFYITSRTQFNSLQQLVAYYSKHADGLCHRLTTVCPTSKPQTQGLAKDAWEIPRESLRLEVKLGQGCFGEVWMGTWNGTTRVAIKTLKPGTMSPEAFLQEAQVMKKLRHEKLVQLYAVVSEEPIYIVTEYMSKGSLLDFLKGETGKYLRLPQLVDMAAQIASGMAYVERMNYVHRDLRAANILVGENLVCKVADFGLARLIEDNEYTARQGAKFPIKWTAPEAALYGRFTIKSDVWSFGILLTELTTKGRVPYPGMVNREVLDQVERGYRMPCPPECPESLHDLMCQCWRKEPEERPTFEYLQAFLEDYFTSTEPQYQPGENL

PBK (human) = PBK (human) (UniProt Q96KB5)
WEE1 (human) = WEE1 (human) (UniProt P30291)
RPS6KA3 KD1 KD2 (human) = RPS6KA3 KD1 KD2 (human) (UniProt P51812)
Chain of RPS6KA3 KD1 KD2 (human) (P51812 whole entry, looked up): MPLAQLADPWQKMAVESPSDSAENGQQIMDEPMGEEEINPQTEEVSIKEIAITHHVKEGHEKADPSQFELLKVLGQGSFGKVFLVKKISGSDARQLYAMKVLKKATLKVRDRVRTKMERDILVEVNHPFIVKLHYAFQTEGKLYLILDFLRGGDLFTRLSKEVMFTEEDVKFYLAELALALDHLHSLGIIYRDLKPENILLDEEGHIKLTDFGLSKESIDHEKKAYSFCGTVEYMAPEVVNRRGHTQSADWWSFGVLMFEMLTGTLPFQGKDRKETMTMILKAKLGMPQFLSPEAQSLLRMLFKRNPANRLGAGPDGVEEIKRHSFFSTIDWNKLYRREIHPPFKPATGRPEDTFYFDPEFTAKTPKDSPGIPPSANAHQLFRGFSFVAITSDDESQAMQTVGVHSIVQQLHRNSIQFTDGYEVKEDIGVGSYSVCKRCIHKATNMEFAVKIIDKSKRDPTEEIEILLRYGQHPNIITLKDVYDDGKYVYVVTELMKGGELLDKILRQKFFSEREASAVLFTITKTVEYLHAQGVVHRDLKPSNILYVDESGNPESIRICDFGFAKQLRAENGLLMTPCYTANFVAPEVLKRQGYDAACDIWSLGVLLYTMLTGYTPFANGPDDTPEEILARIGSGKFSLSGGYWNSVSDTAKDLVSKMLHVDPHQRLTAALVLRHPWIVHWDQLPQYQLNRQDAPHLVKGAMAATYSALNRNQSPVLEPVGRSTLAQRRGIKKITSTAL

TBK1 (human) = TBK1 (human) (UniProt Q9UHD2)

In the case of `O=C(NC(NC(=S)Nc1ccc(F)c([N+](=O)[O-])c1)C(Cl)(Cl)Cl)C(c1ccccc1)c1ccccc1` (stereo not drawn), the residual activity (MAPK1 (human)) is reported as 97.6%, the residual activity (TXK (human)) is reported as 108% and the residual activity (PRKD3 (human)) is reported as 98.5%. The residual activity (WNK2 (human)) was 117%, the residual activity (DAPK1 (human)) was 75.1% and the residual activity (TSSK1B (human)) was 93.4%. The residual activity (MAP4K4 (human)) was 92.7%, the residual activity (CDK4 CCND1 (human)) was 116% and the residual activity (TGFBR2 (human)) was 91.6%. It also gave a residual activity (PAK1 (human)) of 86%, a residual activity (NEK7 (human)) of 102% and a residual activity (NEK2 (human)) of 112%. It also gave a residual activity (VRK1 (human)) of 96.7%, a residual activity (SGK2 (human)) of 119% and a residual activity (ALK (human)) of 110%. The residual activity (NEK4 (human)) was 87.8%, the residual activity (IRAK1 (human)) was 107% and the residual activity (PIM3 (human)) was 120%. It also gave a residual activity (MAPKAPK3 (human)) of 106%, a residual activity (CHEK1 (human)) of 100% and a residual activity (IKBKE (human)) of 106%. The residual activity (ADRBK1 (human)) was 79.5%, the residual activity (PRKCB2 (human)) was 107% and the residual activity (ZAP70 (human)) was 94.2%. It also gave a residual activity (FYN (human)) of 91.2%, a residual activity (NEK3 (human)) of 96.2% and a residual activity (MARK4 (human)) of 104%. The residual activity (GSK3B (human)) was 109%, the residual activity (MAP3K7 TAB1 (human)) was 89.7% and the residual activity (BRSK2 (human)) was 102%. The residual activity (MARK3 (human)) was 104%, the residual activity (LYN (human)) was 103% and 116% and the residual activity (CLK4 (human)) was 105%. It also gave a residual activity (PDGFRA (human)) of 100%, a residual activity (IRAK4 (human)) of 191% and a residual activity (CAMK2D (human)) of 102%. It also gave a residual activity (NEK1 (human)) of 101%, a residual activity (SRC (human)) of 96.1% and a residual activity (PBK (human)) of 116%. The residual activity (WEE1 (human)) was 91.8%, the residual activity (RPS6KA3 KD1 KD2 (human)) was 96.2% and the residual activity (TBK1 (human)) was 98.7%.
`O=C(Nc1ccc(Cl)cc1)c1ccccc1NCc1ccncc1` was tested, and the residual activity (MAPK1 (human)) was 94.7%, the residual activity (TXK (human)) was 97.7% and the residual activity (PRKD3 (human)) was 92.1%. It also gave a residual activity (WNK2 (human)) of 101%, a residual activity (DAPK1 (human)) of 99.9% and a residual activity (TSSK1B (human)) of 103%. For the same molecule, the residual activity (MAP4K4 (human)) was 88.7%, the residual activity (CDK4 CCND1 (human)) was 104% and the residual activity (TGFBR2 (human)) was 90.1%. For the same molecule, the residual activity (PAK1 (human)) was 94.9%, the residual activity (NEK7 (human)) was 103% and the residual activity (NEK2 (human)) was 88.4%. It also gave a residual activity (VRK1 (human)) of 104%, a residual activity (SGK2 (human)) of 103% and a residual activity (ALK (human)) of 103%. The residual activity (NEK4 (human)) was 85.8%, the residual activity (IRAK1 (human)) was 117% and the residual activity (PIM3 (human)) was 93%. It also gave a residual activity (MAPKAPK3 (human)) of 91.4%, a residual activity (CHEK1 (human)) of 96.4% and a residual activity (IKBKE (human)) of 98.9%. For the same molecule, the residual activity (ADRBK1 (human)) was 98.2%, the residual activity (PRKCB2 (human)) was 93.3% and the residual activity (ZAP70 (human)) was 103%. For the same molecule, the residual activity (FYN (human)) was 97%, the residual activity (NEK3 (human)) was 90.5% and the residual activity (MARK4 (human)) was 107%. It also gave a residual activity (GSK3B (human)) of 89.3%, a residual activity (MAP3K7 TAB1 (human)) of 98.1% and a residual activity (BRSK2 (human)) of 102%. The residual activity (MARK3 (human)) was 93.1%, the residual activity (LYN (human)) was 75.1% and 93.7% and the residual activity (CLK4 (human)) was 107%. The residual activity (PDGFRA (human)) was 81.3%, the residual activity (IRAK4 (human)) was 104% and the residual activity (CAMK2D (human)) was 101%. The residual activity (NEK1 (human)) was 96%, the residual activity (SRC (human)) was 88.8% and the residual activity (PBK (human)) was 88.5%. It also gave a residual activity (WEE1 (human)) of 90.1%, a residual activity (RPS6KA3 KD1 KD2 (human)) of 91.4% and a residual activity (TBK1 (human)) of 88.4%.
In the case of `Nc1n[nH]c2nnc(-c3c(-c4ccccc4)nn4ccccc34)cc12`, the residual activity (MAPK1 (human)) is reported as 87.2%, the residual activity (TXK (human)) is reported as 88.8% and the residual activity (PRKD3 (human)) is reported as 58.9%. It also gave a residual activity (WNK2 (human)) of 111%, a residual activity (DAPK1 (human)) of 95.9% and a residual activity (TSSK1B (human)) of 102%. It also gave a residual activity (MAP4K4 (human)) of 62%, a residual activity (CDK4 CCND1 (human)) of 89.2% and a residual activity (TGFBR2 (human)) of 112%. It also gave a residual activity (PAK1 (human)) of 91.9%, a residual activity (NEK7 (human)) of 95.3% and a residual activity (NEK2 (human)) of 95.3%. The residual activity (VRK1 (human)) was 92.2%, the residual activity (SGK2 (human)) was 98.8% and the residual activity (ALK (human)) was 108%. It also gave a residual activity (NEK4 (human)) of 88.4%, a residual activity (IRAK1 (human)) of 105% and a residual activity (PIM3 (human)) of 100%. The residual activity (MAPKAPK3 (human)) was 103%, the residual activity (CHEK1 (human)) was 103% and the residual activity (IKBKE (human)) was 95.5%. It also gave a residual activity (ADRBK1 (human)) of 95%, a residual activity (PRKCB2 (human)) of 99.7% and a residual activity (ZAP70 (human)) of 90.1%. For the same molecule, the residual activity (FYN (human)) was 95%, the residual activity (NEK3 (human)) was 82.7% and the residual activity (MARK4 (human)) was 105%. The residual activity (GSK3B (human)) was 109%, the residual activity (MAP3K7 TAB1 (human)) was 101% and the residual activity (BRSK2 (human)) was 96.1%. For the same molecule, the residual activity (MARK3 (human)) was 99.3%, the residual activity (LYN (human)) was 94.9% and 97.1% and the residual activity (CLK4 (human)) was 101%. It also gave a residual activity (PDGFRA (human)) of 99.7%, a residual activity (IRAK4 (human)) of 99.7% and a residual activity (CAMK2D (human)) of 96.5%. For the same molecule, the residual activity (NEK1 (human)) was 109%, the residual activity (SRC (human)) was 100% and the residual activity (PBK (human)) was 95%. For the same molecule, the residual activity (WEE1 (human)) was 92.4%, the residual activity (RPS6KA3 KD1 KD2 (human)) was 98.7% and the residual activity (TBK1 (human)) was 100%.
With `CC(C)n1cnc2c(Nc3cccc(Cl)c3)nc(NCCO)nc21` the residual activity (MAPK1 (human)) was 107%, the residual activity (TXK (human)) was 78.1% and the residual activity (PRKD3 (human)) was 88.4%. For the same molecule, the residual activity (WNK2 (human)) was 93.6%, the residual activity (DAPK1 (human)) was 78.8% and the residual activity (TSSK1B (human)) was 91.9%. For the same molecule, the residual activity (MAP4K4 (human)) was 75.5%, the residual activity (CDK4 CCND1 (human)) was 77% and the residual activity (TGFBR2 (human)) was 70.2%. For the same molecule, the residual activity (PAK1 (human)) was 97.1%, the residual activity (NEK7 (human)) was 93.9% and the residual activity (NEK2 (human)) was 97.6%. It also gave a residual activity (VRK1 (human)) of 96.3%, a residual activity (SGK2 (human)) of 97.4% and a residual activity (ALK (human)) of 91.8%. The residual activity (NEK4 (human)) was 89.1%, the residual activity (IRAK1 (human)) was 101% and the residual activity (PIM3 (human)) was 90.4%. It also gave a residual activity (MAPKAPK3 (human)) of 91%, a residual activity (CHEK1 (human)) of 87.1% and a residual activity (IKBKE (human)) of 97.6%. The residual activity (ADRBK1 (human)) was 96%, the residual activity (PRKCB2 (human)) was 99.7% and the residual activity (ZAP70 (human)) was 98.3%. It also gave a residual activity (FYN (human)) of 60.4%, a residual activity (NEK3 (human)) of 92.6% and a residual activity (MARK4 (human)) of 88.1%. For the same molecule, the residual activity (GSK3B (human)) was 96%, the residual activity (MAP3K7 TAB1 (human)) was 92.7% and the residual activity (BRSK2 (human)) was 95%. The residual activity (MARK3 (human)) was 92.3%, the residual activity (LYN (human)) was 80.2% and 94.6% and the residual activity (CLK4 (human)) was 36.1%. For the same molecule, the residual activity (PDGFRA (human)) was 96.4%, the residual activity (IRAK4 (human)) was 95.2% and the residual activity (CAMK2D (human)) was 84.2%. For the same molecule, the residual activity (NEK1 (human)) was 90.4%, the residual activity (SRC (human)) was 68.9% and the residual activity (PBK (human)) was 101%. It also gave a residual activity (WEE1 (human)) of 98.9%, a residual activity (RPS6KA3 KD1 KD2 (human)) of 60.1% and a residual activity (TBK1 (human)) of 89.2%.
